Source: US11399542B2, “Pesticidally active heterocyclic derivatives with sulfur containing substituents” (SYNGENTA PARTICIPATIONS AG, priority 2017, dated 2022)

Key:
Format in all cases: in vivo
[1] = tested on: Frankliniella occidentalis (Western Flower Thrips); assay: Example B8: Activity against Frankliniella occidentalis, sprayed sunflower leaf discs; details: foliar, 168 h, application rate 200 ppm, mixed ages on sunflower leaf discs, 7 days after infestation
Description: Sunflower leaf discs were placed on agar in 24-well microtiter plates and sprayed with aqueous test solutions prepared from […] stock solutions. After drying the leaf discs were infested with a Frankliniella population of mixed ages. The samples were assessed for mortality 7 days after infestation.

[2] = tested on: Plutella xylostella (Diamond Back Moth); assay: Example B3: Activity against Plutella xylostella, artificial diet, L2 larvae; details: 120 h, application rate 200 ppm, L2 larvae on artificial diet, 5 days after infestation, read-out: effect in at least one of the two categories (mortality or growth inhibition)
Description: (§1) 24-well microtiter plates with artificial diet were treated with aqueous test solutions prepared from 10′000 ppm DMSO stock solutions by pipetting. After drying, the plates were infested with L2 larvae (10 to 15 per well). The samples were assessed for mortality and growth inhibition in comparison to untreated samples 5 days after infestation.

[3] = tested on: Myzus persicae (Green Peach Aphid); assay: Example B5: Activity against Myzus persicae, sprayed sunflower leaf discs; details: foliar, 144 h, application rate 200 ppm, mixed-age aphids on sunflower leaf discs, 6 days after infestation
Description: Sunflower leaf discs were placed on agar in a 24-well microtiter plate and sprayed with aqueous test solutions prepared from 10′000 ppm DMSO stock solutions. After drying, the leaf discs were infested with an aphid population of mixed ages. The samples were assessed for mortality 6 days after infestation.

[4] = tested on: Aedes aegypti (Yellow Fever Mosquito); assay: Example B11: Activity against Aedes aegypti, dry deposit in tissue culture plates; details: 200 ppm in ethanol; adult females; after 48 h and/or 24 h
Description: Test solutions, at an application rate of 200 ppm in ethanol, were applied to 12 well tissue culture plates. Once the deposits were dry, five, two to five day old adult female Aedes aegypti were added to each well, and sustained with a 10% sucrose solution in a cotton wool plug. Assessment of knockdown was made one hour after introduction, and mortality was assessed at 24 and 48 hours after introduction.

[5] = tested on: Myzus persicae (Green Peach Aphid); assay: Example B6: Activity against Myzus persicae, systemic via roots of pea seedlings; details: 144 h, test rate 24 ppm, pea seedling roots in test solution, 6 days
Description: Roots of pea seedlings infested with an aphid population of mixed ages were placed directly in the aqueous test solutions prepared from 10′000 DMSO stock solutions. The samples were assessed for mortality 6 days after placing seedlings in test solutions.

[6] = tested on: Diabrotica balteata (Corn Root Worm); assay: Example B4: Activity against Diabrotica balteata, sprayed maize sprouts; details: 96 h, application rate 200 ppm, L2 larvae on maize sprouts, 4 days after infestation, read-out: effect in at least one of the two categories (mortality or growth inhibition)
Description: as §1, with “Maize sprouts placed onto an agar layer in 24-well” for “24-well”, “plates” for “plates with artificial diet”, “spraying.” for “pipetting.”, “(6” for “(10”, “10” for “15”, “4” for “5”

[7] = tested on: Euschistus heros (Neotropical Brown Stink Bug); assay: Example B9: Activity against Euschistus heros, sprayed soybean leaf; details: 120 h, application rate 200 ppm, N2 nymphs on soybean leaf, 5 days after infestation, read-out: effect in at least one of the two categories (mortality or growth inhibition)
Description: Soybean leaf on agar in 24-well microtiter plates were sprayed with aqueous test solutions prepared from 10′000 ppm DMSO stock solutions. After drying the leaf were infested with N2 nymphs. The samples were assessed for mortality and growth inhibition in comparison to untreated samples 5 days after infestation.

[8] = tested on: Spodoptera littoralis (Egyptian Cotton Leaf Worm); assay: Example B2: Activity against Spodoptera littoralis, systemic via lettuce roots in agar; details: 144 h, test rate 12.5 ppm, lettuce root uptake, 6 days after infestation, read-out: effect in at least one of the three categories (mortality, anti-feeding, or growth inhibition)
Excerpt: Test compounds were applied by pipette from 10′000 ppm DMSO stock solutions into 24-well plates and mixed with agar. Lettuce seeds were placed onto the agar and the multi well plate was closed by another plate which contained also agar. After 7 days the compound was absorbed by the roots and the lettuce grew into the lid plate. The lettuce leaves were then cut off into the lid plate. Spodoptera eggs were pipetted through a plastic stencil onto a humid gel blotting paper and the lid plate was closed with it. The samples were assessed for mortality, anti-feedant effect and growth inhibition in comparison to untreated samples 6 days after infestation.

[9] = tested on: Bemisia tabaci (Cotton White Fly); assay: Example B7: Activity against Bemisia tabaci, sprayed cotton leaf discs; details: foliar, 144 h, application rate 200 ppm, adult white flies on cotton leaf discs, 6 days after incubation
Description: Cotton leaf discs were placed on agar in 24-well microtiter plates and sprayed with aqueous test solutions prepared from 10′000 ppm DMSO stock solutions. After drying the leaf discs were infested with adult white flies. The samples were checked for mortality 6 days after incubation.

[10] = tested on: Spodoptera littoralis (Egyptian Cotton Leaf Worm); assay: Example B1: Activity against Spodoptera littoralis, sprayed cotton leaf discs; details: foliar, 72 h, application rate 200 ppm, L1 larvae on cotton leaf discs, 3 days after infestation, read-out: control (at least one of mortality, anti-feedant effect, growth inhibition)
Description: Cotton leaf discs were placed onto agar in 24-well microtiter plates and sprayed with aqueous test solutions prepared from 10′000 ppm DMSO stock solutions. After drying the leaf discs were infested with five L1 larvae. The samples were assessed for mortality, anti-feeding effect, and growth inhibition in comparison to untreated samples 3 days after infestation. Control of Spodoptera littoralis by a test sample is given when at least one of the categories mortality, anti-feedant effect, and growth inhibition is higher than the untreated sample.

[11] = tested on: Tetranychus urticae (Two-Spotted Spider Mite); assay: Example B10: Activity against Tetranychus urticae, sprayed bean leaf discs; details: foliar, 192 h
Description: Bean leaf discs on agar in 24-well microtiter plates were sprayed with aqueous test solutions prepared from 10′000 ppm DMSO stock solutions. After drying the leaf discs were infested with a mite population of mixed ages. The samples were assessed for mortality on mixed population (mobile stages) 8 days after infestation.

Structure (SMILES): CCS(=O)(=O)c1cc2c(cc1-c1nc3cc(C(F)(F)F)cnc3n1C)n(C)c(=O)n2C [Compound P3, 5-ethylsulfonyl-1,3-dimethyl-6-[3-methyl-6-(trifluoromethyl)imidazo[4,5-b]pyridin-2-yl]benzimidazol-2-one]
- mortality at 200 ppm [1]: ≥ 80%
- percent effect (mortality or growth inhibition) at 200 ppm [2]: ≥ 80%
- mortality at 200 ppm [3]: ≥ 80%
- control of Aedes aegypti [4]: at least 80%
- mortality at 24 ppm [5]: ≥ 80%
- percent effect (mortality or growth inhibition) at 200 ppm [6]: ≥ 80%
- percent effect (mortality or growth inhibition) at 200 ppm [7]: ≥ 80%
- percent effect (mortality, anti-feeding or growth inhibition) at 12.5 ppm [8]: ≥ 80%
- mortality at 200 ppm [9]: ≥ 80%
- percent control (mortality, anti-feedant effect or growth inhibition) at 200 ppm [10]: ≥ 80%

Structure (SMILES): CCn1c(=O)n(C)c2cc(-c3nc4cc(C(F)(F)F)cnc4n3C)c(S(=O)(=O)CC)cc21 [Compound P5, 1-ethyl-6-ethylsulfonyl-3-methyl-5-[3-methyl-6-(trifluoromethyl)imidazo[4,5-b]pyridin-2-yl]benzimidazol-2-one]
- mortality at 200 ppm [1]: ≥ 80%
- percent effect (mortality or growth inhibition) at 200 ppm [2]: ≥ 80%
- mortality at 200 ppm [3]: ≥ 80%
- mortality at 24 ppm [5]: ≥ 80%
- percent effect (mortality or growth inhibition) at 200 ppm [6]: ≥ 80%
- percent effect (mortality or growth inhibition) at 200 ppm [7]: ≥ 80%
- percent effect (mortality, anti-feeding or growth inhibition) at 12.5 ppm [8]: ≥ 80%
- mortality at 200 ppm [9]: ≥ 80%
- percent control (mortality, anti-feedant effect or growth inhibition) at 200 ppm [10]: ≥ 80%

Structure (SMILES): CCn1c(=O)n(C)c2cc(S(=O)(=O)CC)c(-c3nc4cc(C(F)(F)F)cnc4n3C)cc21 [Compound P6, 1-ethyl-5-ethylsulfonyl-3-methyl-6-[3-methyl-6-(trifluoromethyl)imidazo[4,5-b]pyridin-2-yl]benzimidazol-2-one]
- percent effect (mortality or growth inhibition) at 200 ppm [2]: ≥ 80%
- mortality at 200 ppm [3]: ≥ 80%
- mortality at 24 ppm [5]: ≥ 80%
- percent effect (mortality or growth inhibition) at 200 ppm [6]: ≥ 80%
- percent effect (mortality or growth inhibition) at 200 ppm [7]: ≥ 80%
- mortality at 200 ppm [11]: ≥ 80%
- mortality at 200 ppm [9]: ≥ 80%
- percent control (mortality, anti-feedant effect or growth inhibition) at 200 ppm [10]: ≥ 80%
